# Measured values reported in USRE43615E1, “Method for controlling the yeast-to-filamentous growth transition in fungi” (priority 2007, dated 2012).
# Key:
# [1] = test system: C. albicans SC3514 (wild type) yeast-to-hypha transition; assay: Inhibition of yeast-to-hypha transition in optical microplates, monitored by microscopy; format: cell-based, Candida albicans
# Description: (§1) A simple in vitro assay system was designed to detect inhibition of the yeast-to-filamentous growth transition in C. albicans. In this assay, C. albicans cells are first grown under conditions that maintain them in a yeast growth form. The yeast-form cells are then transferred to the wells of an optical microplate containing (i) a medium that induces either the yeast-to-hypha transition (in wild type cells) or the yeast-to-pseudohypha transition (in a conditional pseudohyphal mutant strain) and (ii) varying concentrations of BH3I-1 (typically 0, 10, 30, 50, 100 and 200 μM BH3I-1). The plates are incubated for up to six hours at 37° C. (to test for the hyphal transition) or up to 24 hours 30° C. (to test for the pseudohyphal transition). The transition to filamentous growth (or lack thereof) is monitored in the optical microplates directly with a Nikon TE200 inverted microscope.
# (§2) C. albicans SC3514 was used as the “wild type” strain to monitor the yeast-to-hypha transition. A “conditional pseudohyphal mutant” strain was used to monitor the yeast-to-pseudohypha transition. The conditional strain harbors deletions of both native GRR1 alleles plus an introduced wild type copy of GRR1 under the control of the regulatable MET3 promoter. Deletion of GRR1 was previously found to cause pseudohyphal growth.
# (§3) Standard yeast growth media were used for these experiments. To maintain wild type cells in the yeast-form, cells were grown in YPD medium (1% Yeast Extract, 2% Peptone and 2% Dextrose) at 30° C. To induce hyphal growth in the wild type strain, cells were transferred to Spider medium (1% Nutrient broth, 1% mannitol, […]) at 37° C. or to Lee's medium (0.5% (NH4)SO4, 0.02% MgSO4, 0.5% NaCl, 1.25% glucose, supplemented with alanine, leucine, lysine, ornithine, phenylalanine threonine and biotin) at 37° C. To maintain the conditional pseudohyphal mutant strain in the yeast-form, cells were grown in YNB medium (Yeast Nitrogen Base, ammonium sulfate, succinic acid supplemented with the appropriate amino acids) at 30° C. […]
# [2] = test system: C. albicans conditional pseudohyphal mutant (grr1/grr1, MET3p-driven GRR1) yeast-to-pseudohypha transition; assay: Inhibition of yeast-to-pseudohypha transition in optical microplates, monitored by microscopy; format: cell-based, Candida albicans
# Description: as §1, §2, §3
smiles,measurement,setting,value
"CC(C)C(C(=O)O)N1C(=O)C(=Cc2ccc(Br)cc2)SC1=S (stereo not drawn) [BH3I-1, 5-(p-Bromobenzylidine)-α-isopropyl-4-oxo-2-thioxo-3-thiozolidineacetic acid]",minimum inhibitory concentration (MIC) for the yeast-to-hypha transition,"[1]; wild type SC3514, both hyphal-inducing media (Spider medium, Lee's medium), 37° C.",50 to 100 µM
same,growth of treated cells in hyphal-inducing media,"[1]; wild type SC3514, hyphal-inducing media",continued to divide as yeast cells
same,yeast-to-hypha transition of treated cells,[1]; wild type SC3514 transferred from YPD medium to Spider medium or Lee's medium,failed to undergo the yeast-to-hypha transition
same,yeast-to-pseudohypha transition of treated cells,[2]; conditional pseudohyphal mutant transferred from YNB medium to YNB plus methionine/cysteine medium,failed to undergo the yeast-to-pseudohypha transition
same,MIC for the yeast-to-pseudohypha transition,"[2]; conditional pseudohyphal mutant, YNB plus methionine/cysteine medium, 30° C.",100 µM
same,growth of treated cells in pseudohyphal-inducing medium,"[2]; conditional pseudohyphal mutant, pseudohyphal-inducing medium",continued to divide as yeast cells
